Reference: PubChem BioAssay AID1259408 (Genetic Toxicology Data Bank (GENE-TOX), 2018)
Active and inactive are the calls of the source. No rule for the calls is given here.

Tested on: GENE-TOX genotoxicity assays, various organisms and cells
Assay: GENE-TOX mutagenicity studies
Conditions: for call: Assay Type: In vivo carcinogenicity studies
[1] = Species/Cell Type: Drosophila melanogaster, Assay Type: Sex-linked recessive lethal gene mutation, Assay Code: SRL+, Evaluation Type: Evaluation A (Pre-1980)
[2] = Species/Cell Type: Human lymphocytes, Assay Type: Sister-chromatid exchange (SCE) in vivo, Assay Code: SCY+, Evaluation Type: Evaluation B (Post-1980)
[3] = Species/Cell Type: Nonhuman, Assay Code: CCG+, Evaluation Type: Evaluation A (Pre-1980)
[4] = Species/Cell Type: Bacillus subtilis (H17 vs M45), Assay Type: Rec-assay, spot test, DNA effects (bacterial DNA repair), Assay Code: REWT, Evaluation Type: Evaluation A (Pre-1980)
[5] = Species/Cell Type: Escherichia coli polA (W3119 vs P3478), Assay Type: Rec-assay, DNA effects (bacterial DNA repair), Assay Code: RE1T, Evaluation Type: Evaluation A (Pre-1980)
[6] = Species/Cell Type: Saccharomyces cerevisiae, Assay Type: Mitotic recombination or gene conversion, Assay Code: YEH-, Evaluation Type: Evaluation A (Pre-1980)
[7] = Species/Cell Type: Salmonella typhimurium (one or more of the five standard strains: TA98, TA100, TA1535, TA1537, and TA1538), Assay Type: Histidine reverse gene mutation, Ames assay, Assay Code: SAL-, Evaluation Type: Evaluation A (Pre-1980)
[8] = Species/Cell Type: Hordeum vulgare (barley), Assay Type: Chromosome aberrations, Assay Code: HOC+D, Dose Response: With dose response, Evaluation Type: Evaluation A (Pre-1980)
[9] = Species/Cell Type: Salmonella typhimurium (one or more of the five standard strains: TA98, TA100, TA1535, TA1537, and TA1538), Assay Type: Histidine reverse gene mutation, Ames assay, Assay Code: SAL+, Evaluation Type: Evaluation A (Pre-1980)
[10] = Species/Cell Type: Drosophila melanogaster, Assay Type: Sex-linked recessive lethal gene mutation, Assay Code: SRLT, Evaluation Type: Evaluation A (Pre-1980)
[11] = Species/Cell Type: Rodents, Sex: Male, Assay Type: Dominant lethal test, Assay Code: DLT+, Evaluation Type: Evaluation A (Pre-1980)

Which results are given for C=O?
mutagenic call (Species/Cell Type: Chinese hamster ovary (CHO) cells, Assay Type: Forward gene mutation at the HPRT locus, Assay Code: CHOT, Evaluation Type: Evaluation B (Post-1980)): no conclusion; mutagenic call [1]: active; positive; mutagenic call (Species/Cell Type: Drosophila melanogaster, Sex: Male, Assay Type: Heritable translocation test, chromosome aberrations, Assay Code: DHT+, Evaluation Type: Evaluation A (Pre-1980)): active; positive; mutagenic call (Species/Cell Type: Escherichia coli polA (W3119 vs P3478), Assay Type: Rec-assay, DNA effects (bacterial DNA repair), Assay Code: RE1+, Evaluation Type: Evaluation A (Pre-1980)): active; positive; mutagenic call (Species/Cell Type: Human diploid fibroblasts, Assay Type: Unscheduled DNA synthesis (UDS) in vitro, DNA effects, Assay Code: UDHT, Evaluation Type: Evaluation A (Pre-1980)): no conclusion; mutagenic call (Species/Cell Type: Human lymphocytes, Assay Type: Sister-chromatid exchange (SCE) in vitro, Assay Code: SCL+D, Dose Response: With dose response, Evaluation Type: Evaluation B (Post-1980)): active; positive; mutagenic call [2]: active; positive; mutagenic call (Species/Cell Type: Human, Assay Type: Sister-chromatid exchange (SCE) in vitro, Assay Code: SC1+D, Dose Response: With dose response, Evaluation Type: Evaluation B (Post-1980)): active; positive; mutagenic call (Species/Cell Type: Mammalian polychromatic erythrocytes, Assay Type: Micronucleus test, chromosome aberrations, Assay Code: MNTT, Evaluation Type: Evaluation B (Post-1980)): no conclusion; mutagenic call (Species/Cell Type: Neurospora crassa, Assay Type: Reverse gene mutation, Assay Code: NER+, Evaluation Type: Evaluation A (Pre-1980)): active; positive; call [3]: active; positive; mutagenic call (Species/Cell Type: Nonhuman, Assay Type: Sister-chromatid exchange (SCE) in vitro, Assay Code: SC2+D, Dose Response: With dose response, Evaluation Type: Evaluation B (Post-1980)): active; positive; mutagenic call (Species/Cell Type: Saccharomyces cerevisiae, Assay Type: Mitotic recombination or gene conversion, Assay Code: YEC+, Evaluation Type: Evaluation A (Pre-1980)): active; positive; mutagenic call (Species/Cell Type: Saccharomyces cerevisiae, Assay Type: Reverse gene mutation, Assay Code: YER+, Evaluation Type: Evaluation A (Pre-1980)): active; positive

Which mutagenic call (Species/Cell Type: Nonhuman, Assay Type: Sister-chromatid exchange (SCE) in vitro, Assay Code: SC2+D, Dose Response: With dose response, Evaluation Type: Evaluation A (Pre-1980)) does the source give for NC(=O)c1ncn([C@@H]2O[C@H](CO)[C@@H](O)[C@H]2O)c1O here?
Its mutagenic call is “active; positive”.

Which mutagenic call [4] does the source give for CCOP(=S)(OCC)SCSP(=S)(OCC)OCC here?
Its mutagenic call is “no conclusion”.

And the mutagenic call [5]?
Its mutagenic call is “no conclusion”.

And the mutagenic call (Species/Cell Type: Human diploid fibroblasts, Assay Type: Unscheduled DNA synthesis (UDS) in vitro, DNA effects, Assay Code: UDH-, Evaluation Type: Evaluation A (Pre-1980))?
Its mutagenic call is “inactive; negative”.

What about the mutagenic call (Species/Cell Type: Human, Assay Type: Sister-chromatid exchange (SCE) in vitro, Assay Code: SC1-, Evaluation Type: Evaluation B (Post-1980)) of the same molecule?
Its mutagenic call is “inactive; negative”.

And the mutagenic call [6]?
Its mutagenic call is “inactive; negative”.

And the mutagenic call [7]?
The mutagenic call was “inactive; negative”.

How did the mutagenic call (Species/Cell Type: Chinese hamster lung (V79) cells, Assay Type: Forward gene mutation at the HPRT or ouabain locus, Assay Code: V79+, Evaluation Type: Evaluation A (Pre-1980)) turn out when Cc1c2cccc(F)c2c(C)c2c1ccc1ccccc12 was run?
Its mutagenic call is “active; positive”.

Which mutagenic call (Species/Cell Type: Saccharomyces cerevisiae, Assay Type: Mitotic recombination or gene conversion, Assay Code: YECT, Evaluation Type: Evaluation A (Pre-1980)) does the source give for CCn1c2cc(=N[N+]#N)ccc-2c2ccc(N=[N+]=[N-])cc2c1-c1ccccc1 here?
Its mutagenic call is “no conclusion”.

And the mutagenic call [6]?
Its mutagenic call is “inactive; negative”.

What about the mutagenic call (Species/Cell Type: Saccharomyces cerevisiae, Assay Type: Reverse gene mutation, Assay Code: YERT, Evaluation Type: Evaluation A (Pre-1980)) of the same molecule?
Its mutagenic call is “no conclusion”.

For CCOS(=O)(=O)CCCS(=O)(=O)OCC, which mutagenic call (Species/Cell Type: Arabidopsis species, Assay Type: Gene mutation, Assay Code: ARM+D, Dose Response: With dose response, Evaluation Type: Evaluation A (Pre-1980)) is on record?
The mutagenic call was “active; positive”.

And the mutagenic call [8]?
The mutagenic call was “active; positive”.

For O=[N+]([O-])c1ccc2[nH]ccc2c1, which mutagenic call [9] is on record?
The mutagenic call was “active; positive”.

O=Nc1ccc(NNc2ccccc2)cc1 was tested. Which mutagenic call [9] did it give?
The mutagenic call was “active; positive”.

O=C(N[C@H](CO)[C@H](O)c1ccc([N+](=O)[O-])cc1)C(Cl)Cl was tested. Which mutagenic call (Species/Cell Type: Arabidopsis species, Assay Type: Gene mutation, Assay Code: ARM-, Evaluation Type: Evaluation A (Pre-1980)) did it give?
The mutagenic call was “inactive; negative”.

And the mutagenic call (Species/Cell Type: Bacillus subtilis (H17 vs M45), Assay Type: Rec-assay, spot test, DNA effects (bacterial DNA repair), Assay Code: REW-, Evaluation Type: Evaluation A (Pre-1980))?
Its mutagenic call is “inactive; negative”.

What about the mutagenic call (Species/Cell Type: Bacillus subtilis (H17 vs M45T), Assay Type: Rec-assay, spot test, DNA effects (bacterial DNA repair), Assay Code: REXT, Evaluation Type: Evaluation A (Pre-1980)) of the same molecule?
Its mutagenic call is “no conclusion”.

And the mutagenic call [10]?
The mutagenic call was “no conclusion”.

And the mutagenic call (Species/Cell Type: Escherichia coli WP2, Assay Type: Tryptophan reverse gene mutation, Assay Code: WP2-, Evaluation Type: Evaluation A (Pre-1980))?
The mutagenic call was “inactive; negative”.

What about the mutagenic call (Species/Cell Type: Escherichia coli polA (W3110 vs P3478), Assay Type: Rec-assay, DNA effects (bacterial DNA repair), Assay Code: RE2-, Evaluation Type: Evaluation A (Pre-1980)) of the same molecule?
The mutagenic call was “inactive; negative”.

And the mutagenic call (Species/Cell Type: Escherichia coli polA (W3119 vs P3478), Assay Type: Rec-assay, DNA effects (bacterial DNA repair), Assay Code: RE1-, Evaluation Type: Evaluation A (Pre-1980))?
The mutagenic call was “inactive; negative”.

And the call (Species/Cell Type: Nonhuman, Assay Code: CCGT, Evaluation Type: Evaluation A (Pre-1980))?
Its call is “no conclusion”.

What about the mutagenic call [11] of the same molecule?
The mutagenic call was “active; positive”.

What about the mutagenic call [7] of the same molecule?
The mutagenic call was “inactive; negative”.

O=S=O was tested. Which mutagenic call [2] did it give?
Its mutagenic call is “active; positive”.

And the mutagenic call (Species/Cell Type: Tradescantia species, Assay Type: Chromosome aberrations, Assay Code: TRC+, Evaluation Type: Evaluation A (Pre-1980))?
Its mutagenic call is “active; positive”.

And the mutagenic call (Species/Cell Type: Tradescantia species, Assay Type: Gene mutation, Assay Code: TRM+D, Dose Response: With dose response, Evaluation Type: Evaluation A (Pre-1980))?
The mutagenic call was “active; positive”.

For CN[C@@H]1[C@H](O[C@H]2[C@H](O[C@H]3[C@H](O)[C@@H](O)[C@H](N=C(N)N)[C@@H](O)[C@@H]3N=C(N)N)O[C@@H](C)[C@]2(O)CO)O[C@@H](CO)[C@H](O)[C@H]1O, which mutagenic call (Species/Cell Type: Vicia faba, Assay Type: Chromosome aberrations, Assay Code: VIC-, Evaluation Type: Evaluation A (Pre-1980)) is on record?
Its mutagenic call is “inactive; negative”.

How did the mutagenic call [10] turn out when CN[C@@H](C)Cc1ccccc1 was run?
The mutagenic call was “no conclusion”.

How did the mutagenic call [1] turn out when NC(Cc1ccc(N(CCCl)CCCl)cc1)C(=O)O (centres undefined) was run?
The mutagenic call was “active; positive”.

And the call [3]?
The call was “active; positive”.

For N#CCCN1CC1, which mutagenic call (Species/Cell Type: Schizosaccharomyces pombe, Assay Type: Reverse gene mutation, Assay Code: YEZ+, Evaluation Type: Evaluation A (Pre-1980)) is on record?
The mutagenic call was “active; positive”.

OC1c2cccc3ccc4cc5ccccc5c(c4c23)C1O (centres undefined) was tested. Which mutagenic call (Species/Cell Type: Chinese hamster lung (V79) cells, Assay Type: Forward gene mutation at the HPRT or ouabain locus, Assay Code: V79-, Evaluation Type: Evaluation A (Pre-1980)) did it give?
The mutagenic call was “inactive; negative”.

For CC1=CCc2c1cc(C)c1c2ccc2ccccc21, which mutagenic call (Species/Cell Type: Salmonella typhimurium (one or more of the five standard strains: TA98, TA100, TA1535, TA1537, and TA1538), Assay Type: Histidine reverse gene mutation, Ames assay, Assay Code: SAL+*, Activation: With metabolic activation, Evaluation Type: Evaluation A (Pre-1980)) is on record?
Its mutagenic call is “active; positive”.

Which mutagenic call (Species/Cell Type: Salmonella typhimurium (one or more of the five standard strains: TA98, TA100, TA1535, TA1537, and TA1538), Assay Type: Histidine reverse gene mutation, Ames assay, Assay Code: SALT, Evaluation Type: Evaluation A (Pre-1980)) does the source give for C=CC(O)c1ccc(OC)cc1 (centres undefined) here?
Its mutagenic call is “no conclusion”.

For COc1cc2ccc(=O)oc2cc1O, which mutagenic call (Species/Cell Type: Allium cepa, Assay Type: Chromosome aberrations, Assay Code: ALC+D, Dose Response: With dose response, Evaluation Type: Evaluation A (Pre-1980)) is on record?
The mutagenic call was “active; positive”.

How did the mutagenic call (Species/Cell Type: Mammalian polychromatic erythrocytes, Assay Type: Micronucleus test, chromosome aberrations, Assay Code: MNT-, Evaluation Type: Evaluation B (Post-1980)) turn out when C#CCNC(=NCCSCc1nc[nH]c1C)NC#N was run?
Its mutagenic call is “inactive; negative”.

How did the mutagenic call (Species/Cell Type: Human, Assay Type: Sister-chromatid exchange (SCE) in vitro, Assay Code: SC1+, Evaluation Type: Evaluation B (Post-1980)) turn out when ONc1ccccc1 was run?
Its mutagenic call is “active; positive”.

How did the mutagenic call [4] turn out when CCN(Cc1cccc(S(=O)(=O)O)c1)c1ccc(C(=C2C=CC(=[N+](CC)Cc3cccc(S(=O)(=O)[O-])c3)C=C2)c2ccccc2)cc1 was run?
Its mutagenic call is “no conclusion”.

For Cc1ccc(N)cc1Cl, which call (Species/Cell Type: Nonhuman, Assay Code: CCG-, Evaluation Type: Evaluation A (Pre-1980)) is on record?
The call was “inactive; negative”.

For O=C(CCl)c1ccccc1, which mutagenic call (Species/Cell Type: Drosophila melanogaster, Assay Type: Sex-linked recessive lethal gene mutation, Assay Code: SRL-, Evaluation Type: Evaluation A (Pre-1980)) is on record?
Its mutagenic call is “inactive; negative”.

Which mutagenic call [11] does the source give for C[C@H](CC[C@H](C)OS(C)(=O)=O)OS(C)(=O)=O here?
Its mutagenic call is “active; positive”.

Which mutagenic call (Species/Cell Type: Human diploid fibroblasts, Assay Type: Unscheduled DNA synthesis (UDS) in vitro, DNA effects, Assay Code: UDH+, Evaluation Type: Evaluation A (Pre-1980)) does the source give for NC(=O)/C=C/c1ccc([N+](=O)[O-])o1 here?
Its mutagenic call is “active; positive”.

What about the mutagenic call [9] of the same molecule?
Its mutagenic call is “active; positive”.

How did the mutagenic call [8] turn out when COCC(C)OS(C)(=O)=O (centres undefined) was run?
The mutagenic call was “active; positive”.

Which results are given for CNc1ccc(O)cc1?
mutagenic call (Species/Cell Type: Allium cepa, Assay Type: Chromosome aberrations, Assay Code: ALCT, Evaluation Type: Evaluation A (Pre-1980)): no conclusion; mutagenic call (Species/Cell Type: Neurospora crassa, Assay Type: Aneuploidy, chromosome aberrations, Assay Code: NEN-, Evaluation Type: Evaluation A (Pre-1980)): inactive; negative

With CC(C)CI as the molecule, how does the mutagenic call [5] read?
Its mutagenic call is “no conclusion”.

Nc1ccc(Oc2ccc(N)c(Cl)c2)cc1Cl was tested. Which call [3] did it give?
Its call is “active; positive”.
